Reference: PubChem BioAssay (NCI)
Values joined by “and” are separate entries in the source; they are usually repeats but may differ in a detail not shown here. Equal entries are not always repeated.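 Briefly, cells in 96-well plates were exposed to five compound concentrations for 48 h, and endpoints were estimated by linear interpolation. GI50 = concentration required for 50% inhibition of growth. TGI is the concentration that stops growth completely.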 Where a SMILES comes first, the peptide text is derived from it. [ ]: non-standard residue; d: D form. Orn = NCCC[CH](N)C(=O)O

Key:
Experiment in all cases: inhibition of tumour cell growth, NCI panel, 48 h
[1] = system: A498 renal
[2] = system: HCT-116 colon
[3] = system: M14 melanoma
[4] = system: MOLT-4 leukemia
[5] = system: NCI-H460 lung
[6] = system: OVCAR-5 ovarian
[7] = system: PC-3 prostate
[8] = system: RXF 393 renal
[9] = system: UACC-62 melanoma
[10] = system: UO-31 renal

Row | SMILES | GI50 [1] | TGI [1] | GI50 [2] | TGI [2] | GI50 [3] [nM] | TGI [3] | GI50 [4] [nM] | TGI [4] [nM] | TGI [5] | GI50 [6] [nM] | TGI [6] | GI50 [7] [nM] | TGI [7] | GI50 [8] | TGI [8] | GI50 [9] | TGI [9] | GI50 [10] | TGI [10] | GI50 [5]
1 | COc1ccc2cc(C(=O)/C=C/c3ccccc3OC)ccc2c1 | 6450 nM | 30700 nM | 1400 nM | 6500 nM | 4340 | 25600 nM | 1260 | 9450 | > 51700 nM | 18400 | 49700 nM | 2620 | 23100 nM | 2540 nM | 7630 nM | 1880 nM | 11900 nM | 5930 nM | 18800 nM | 
2 | CSc1ccc2c(c1)C(=O)c1c-2n(CCCN=[N+]=[N-])c(=O)c2cc([N+](=O)[O-])ccc12 |  | > 22300 nM | 1690 nM | > 100000 nM | 1290 | > 100000 nM | 371 | 6380 | > 100000 nM | > 76600 | > 100000 nM | 5580 | > 100000 nM | > 34400 nM | > 100000 nM | 683 nM | > 88700 nM | 1620 nM | > 100000 nM | 322 nM
3 | COc1ccc2c(c1)N(CCO)C1=C(C(=O)OC1)C2c1cccc(Br)c1 (configuration not stated) | 29.3 nM | 1210 nM | 50 nM | 2880 nM | 61.2 | 597 nM | 458 | > 100000 | 5050 nM | 466 | > 100000 nM | 61.8 | 54400 nM | 48.2 nM | 71000 nM | 48 nM | 44500 nM | 77.6 nM | > 85300 nM | 47.7 nM
4 | CCOC(=O)C1=C(N)Oc2cc(OC)ccc2C1c1ccc(F)c(F)c1 (configuration not stated) | 1290 nM | 11900 nM | 1250 nM | 16100 nM | 483 | 13500 nM | 1580 | 22300 | 15200 nM | 10500 | 24100 nM | 2330 | 15100 nM | 1550 nM | 8760 nM | 558 nM | 15400 nM | 5220 nM | 19700 nM | 1010 nM
5 | COc1cc2c3c(n(CCCN4CCOCC4)c(=O)c2cc1OC)-c1cc2c(cc1C3=O)OCO2 | 7530 nM | 54000 nM | 1800 nM | 17400 nM | 900 | 22200 nM | 84.1 | 1810 | > 100000 nM | 67500 | > 100000 nM | 18700 | > 100000 nM |  | > 66600 nM | 193 nM | 2290 nM | 5870 nM | > 100000 nM | 277 nM
6 | CNC(=S)N/N=C(/C)CCC/C(C)=N/NC(=S)NC |  | > 100000 nM |  | > 100000 nM |  | > 100000 nM |  | 303 | > 100000 nM |  | > 100000 nM |  | > 100000 nM |  | > 50300 nM |  | > 100000 nM |  | > 100000 nM | 
7 | COc1ccc2c(c1)c(=O)oc1cc(OC/C(=N\O)c3ccc(F)cc3)ccc12 | 16700 nM | 35300 nM | 14200 nM | 28000 nM | 15700 | 30700 nM | 18100 | > 100000 | 53300 nM | 34400 | > 100000 nM | 24100 | 79000 nM | 21800 nM | 58600 nM | 15100 nM | 31200 nM | 14300 nM | 28900 nM | 18600 nM
8 | O=CNc1ccc2c(c1)Cc1cc([N+](=O)[O-])ccc1-2 | 2020 nM | > 58100 nM | 1380 nM | > 100000 nM | 291 | > 100000 nM | 2780 | > 53100 | > 60300 nM | 4200 | > 100000 nM | 4870 | > 100000 nM | 2330 nM | > 100000 nM | 4300 nM | > 100000 nM | 3380 nM | > 100000 nM | 2780 nM
9 | O=C(Nc1cccc2ccccc12)c1cc2ccccc2cc1O | 1030 nM | 3910 nM | 2850 nM | 12000 nM | 3140 | 20400 nM | 3080 | 21500 | 5870 nM | 3320 | 13000 nM | 2000 | 8480 nM | 2710 nM | 6680 nM | 1490 nM | 10700 nM | 1220 nM | 4950 nM | 2060 nM
10 | Cc1ccc(S(=O)(=O)N2C/C(=C\c3cc(F)cc(F)c3)C(=O)/C(=C/c3cc(F)cc(F)c3)C2)cc1 | 1570 nM | 3410 nM | 162 nM | 513 nM | 429 | 1720 nM | 299 | 2110 | 2910 nM | 713 | 2280 nM | 220 | 612 nM | 535 nM | 1820 nM | 231 nM | 605 nM | 481 nM | 1080 nM | 742 nM
11 | COc1cccc(-c2cc(NCc3ccc4c(c3)OCO4)nc(N)n2)c1 | 33 nM | 763 nM | 47.3 nM | 11600 nM | 47.9 | 1910 nM | 110 | 12800 | 9590 nM | 488 | 28800 nM | 86.8 | 48300 nM | 110 nM | 17200 nM | 54.6 nM | 18100 nM | 104 nM | 17000 nM | 42.8 nM
12 | Cc1cc(Cl)ccc1Nc1nc(C(F)(F)F)ccc1C(=O)N/N=C/c1c(Cl)cccc1Cl | 473 nM | > 22800 nM | 287 nM |  | 536 | > 100000 nM | 157 | 597 | 4390 nM | 888 | > 100000 nM | 268 |  | 2040 nM | > 100000 nM | 489 nM | 6380 nM | 301 nM |  | 322 nM
13 | O=C(Nc1ncc(Cc2ccc(Cl)cc2)s1)c1ccc2c(c1)OCCO2 | 18.7 nM | 80.9 nM | 41.9 nM | > 100000 nM | 40.9 | 75300 nM | 87.7 | > 100000 | 38700 nM | 266 | > 100000 nM | 47 | > 100000 nM | 32.6 nM | 567 nM | 54.3 nM | > 100000 nM | 83.4 nM | > 100000 nM | 40.4 nM
14 | Nc1nn(C(=O)Nc2ccc(Cc3ccccc3)cc2)c2ccccc12 | 16700 nM | 31500 nM | 7030 nM | > 100000 nM | 772 | > 100000 nM | 636 | 20400 | 13000 nM | 31300 | > 100000 nM | 13500 | 51100 nM | 22200 nM | 58200 nM | 353 nM | > 100000 nM | 347 nM | > 100000 nM | 409 nM
15 | CC(C)CC1NC(=O)C(CCCN)NC(=O)C(C(C)C)NC(=O)C2CCCN2C(=O)C(Cc2ccccc2)NC(=O)C(CC(C)C)NC(=O)C(CCCN)NC(=O)C(C(C)C)NC(=O)C2CCCN2C(=O)C(Cc2ccccc2)NC1=O (configuration not stated) (cyclo(FPV[Orn]LFPV[Orn]L); configuration not given here) | 92 nM and 106 nM | 743 nM and 632 nM | 10.2 nM and 16.7 nM | 122 nM and 213 nM | 10.1 | 609 nM and 1520 nM | 23.6 | 402 | 38.5 nM and 107 nM | 11.7 | 968 nM and 1980 nM | 7.03 | 140 nM and 1120 nM | 35.2 nM and 51.5 nM | 720 nM and 1440 nM | < 12.3 nM and 31.5 nM | 443 nM and 1260 nM | 599 nM and 1640 nM | 3610 nM and 6370 nM | 11.1 nM and 28.7 nM
16 | COc1ccc2c(c1)CC[C@@H]1[C@@H]2CC[C@]2(C)c3c(cc(C(=O)c4ccccc4)c4sccc34)C[C@@H]12 | > 100000 nM | > 100000 nM | > 100000 nM | > 100000 nM | 75400 | > 100000 nM | > 100000 | > 100000 | > 100000 nM | 60700 | > 100000 nM | 38100 | > 100000 nM | > 100000 nM | > 100000 nM | > 100000 nM | > 100000 nM | > 100000 nM | > 100000 nM | > 100000 nM
17 | O=C(Nc1cccc(-n2cc(-c3ccncc3)c(-c3ccc(O)c(Cl)c3)n2)c1)Nc1ccc(Cl)c(C(F)(F)F)c1 | 2470 nM | 7750 nM | 2400 nM | 8210 nM | 1790 | 3770 nM | 1640 | 4650 | 9510 nM | 3020 | 13900 nM | 1770 | 4360 nM | 1190 nM | 3740 nM | 2130 nM | 5070 nM | 2650 nM | 7240 nM | 2560 nM
18 | Cc1ccc(C2CC(c3cccc(Nc4ccncc4)c3)=NN2c2ccc(Cl)cc2)cc1 (configuration not stated) | 1380 nM | 2700 nM | 1840 nM | 3710 nM | 1730 | 3390 nM | 1850 | 4120 | 3340 nM | 1610 | 2990 nM | 1590 | 3080 nM | 1590 nM | 2970 nM | 1720 nM | 3140 nM | 1350 nM | 2630 nM | 1720 nM
19 | CCCNNC(=O)c1ccc(CNC(=O)/C=C/c2ccccc2)cc1 | 123 nM | 360 nM | 54.7 nM | 527 nM | 79 | > 100000 nM | 106 | > 100000 | > 100000 nM | 104 |  | 173 | > 100000 nM | 180 nM | 501 nM | 82.5 nM | 249 nM | 51.5 nM | 771 nM | 286 nM
20 | COC1(C)Cc2c(c(C)c(O)c3c2C(=O)C=C(Cl)C3=O)O1 (configuration not stated) |  | > 100000 nM |  | > 78000 nM |  | 56500 nM |  | 46200 | > 100000 nM |  | > 100000 nM |  | > 100000 nM |  | 31800 nM |  | > 87500 nM |  | > 100000 nM | 
21 | CC(=O)/C=C/c1ccc(N(C)Cc2ccc(C(C)(C)C)cc2)cc1 | 124000 nM | 251000 nM | 80600 nM | 290000 nM | 132000 | 321000 nM | 116000 | 425000 | 376000 nM | 195000 | 490000 nM | 97200 | 465000 nM | 131000 nM | 272000 nM | 113000 nM | 255000 nM | 83200 nM | 212000 nM | 144000 nM
22 | CCOC(=O)c1c2c(n3cccc(F)c13)C(=O)c1ncccc1C2=O |  | 21700 nM | 317 nM | 3910 nM | 49 | 1290 nM | 3060 | 23700 | 1120 nM | 1160 | 18700 nM | 449 | 7630 nM | 412 nM | 4100 nM | 222 nM | 1280 nM | 18.9 nM | 1420 nM | 26.3 nM
